Measurements from paper PMC1713233, “Implantation Serine Proteinases heterodimerize and are critical in hatching and implantation” (BMC Developmental Biology, 2006).
Counter-ions that a name gives are not always drawn. Like-named read-outs stand apart in the source and are kept apart here. Residues, ends and D or L forms follow the SMILES beside them. *: point of attachment. pNA = O=[N+]([O-])c1ccc(N*)cc1; Bz = O=C(c1ccccc1)*

Key:
[1] = biological target: T1, ISP1-ISP2 enzyme complex (Mus musculus, UniProt Q924N9+Q99MS4); test: Inhibition of proteolytic activity of ISP enzyme complex, chromogenic assay with BAPNA as substrate; type: biochemical; conditions: for Ki: from IC50 by Cheng and Prusoff equation, read-out: Dissociation Constant (Ki); for Influence on ISP activity: general trypsin inhibitors; for Affinity for ISP enzyme: Fig. 4B, compared to Benzamidine
T1 construct: The native ISP enzyme complex was purified from mouse uterine tissue homogenates; from tissue; host or cells: uterus of pregnant CD1 mice (4.5-6.5 dpc)
T1 sequence (Q924N9 27-274): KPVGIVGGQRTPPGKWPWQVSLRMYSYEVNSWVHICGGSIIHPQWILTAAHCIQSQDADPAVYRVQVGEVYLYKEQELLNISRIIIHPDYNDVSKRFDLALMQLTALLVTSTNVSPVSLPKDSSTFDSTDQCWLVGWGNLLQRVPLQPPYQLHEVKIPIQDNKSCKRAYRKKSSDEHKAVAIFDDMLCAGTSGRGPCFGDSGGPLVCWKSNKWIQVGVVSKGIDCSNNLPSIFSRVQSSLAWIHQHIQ
T1 sequence (Q99MS4 18-279): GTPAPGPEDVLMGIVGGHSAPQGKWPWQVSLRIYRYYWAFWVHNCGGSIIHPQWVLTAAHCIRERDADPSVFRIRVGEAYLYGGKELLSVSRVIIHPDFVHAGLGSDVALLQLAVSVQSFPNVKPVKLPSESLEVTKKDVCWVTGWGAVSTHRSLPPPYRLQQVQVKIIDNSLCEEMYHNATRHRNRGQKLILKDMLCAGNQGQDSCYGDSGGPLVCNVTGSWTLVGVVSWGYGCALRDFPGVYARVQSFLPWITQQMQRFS
Description: Many general serine proteinase inhibitors were tested in order to identify suitable ISP inhibitors when BAPNA was used as a substrate. These included Benzamidine hydrochloride, 4-(Amidino-Phenyl)-Methane-Sulfonyl Fluoride (APMSF), L-1 Chloro-3- [4-tosyl-amido]-7-amino-2-heptanone. HCl (TLCK), Trypsin Soybean Inhibitor (TSI), Bis (5-amidino-2-benzimadozolyl) methane (BABIM), Gabexate mesylate, Nafamostat, and the kunitz family serpins Uterine Plasmin-Trypsin Inhibitor (UPTI) and Secretary Leukocyte proteinase inhibitor (SLPI).
Only inhibitors specific for trypsin-like serine proteinases were able to inhibit the ISPs (Fig. 4B and Additional file 2. Table 1). IC50 (concentration of an inhibitor capable of inhibiting the enzyme activity by 50%) values were obtained by plotting inhibition data, which were extrapolated into Cheng and Prusoff's equation to derive the dissociation constant (Ki).
(§1) Chromogenic assays were carried out using the p-Nitroanilide conjugated peptidic substrates. The reaction conditions used were: 4 mM BAPNA (substrate), in 25 mM Tris.Cl (pH 8.0) and 10 mM EDTA reaction buffer, in a total reaction volume of 0.5 mL. The reactions were carried out at room temperature in a glass cuvette (1 cm path length), and scanned at wavelength maxima of 405 nm using a spectrophotometer. 1 Unit of enzyme is defined as enzyme activity sufficient for the breakdown of 1 μM of substrate/ml/min. The affinity of ISP complex with various substrates was characterized by measuring enzyme activity at differing substrate concentrations and plotting enzyme activity [V] vs. substrate concentration [S]. The Km was calculated using the Michaelis Menton equation (Km = [S] at 1/2 Vmax).
IC50 values were derived by plotting enzyme activity (V) vs. inhibitor concentration [I]. Dissociation constants (Ki) values for different inhibitors were determined by using the Cheng and Prusoff equation (Ki = IC50/1 + [S]/Km).

[2] = test system: blastocysts; test: In vitro embryo hatching; type: cell-based
Source text: In order to define a physiological role for the ISPs, the effect of inhibiting ISP activity upon embryo hatching, outgrowth (Fig. 6 and 7) and implantation (Table 1) was investigated. Blastocysts were first cultured in the presence or absence of anti-ISP mAbs or selected inhibitors. […] Similarly, the effect of varying concentrations of anti-ISP1 and anti-ISP2 mAbs was studied both individually and together (Fig. 7C, E and 7G).
(§2) Blastocysts were collected by flushing the uteri of day 3.5 post coetum dams with M2 (Sigma Aldrich and Co.) medium. For in vitro hatching experiments, blastocysts were cultured in micro drops of Knockout DMEM medium (Invitrogen) with serum replacement in a drop under mineral oil at 37°C and 5% CO2 [27]. For in vitro embryo outgrowth onto extracellular matrix, hatched blastocysts were cultured for an additional 48 h at 37°C and 5% CO2 in DMEM plus 5% (v/v) fetal bovine serum on […] Nunc tissue culture dishes coated with extracellular matrix derived from 10% Triton X-100 (v/v) treated mouse embryo fibroblasts. Inhibitors or anti-ISP mAbs were mixed into media at stated concentrations. For antibody inhibition experiments, anti-ISP hybridoma supernatants (or negative control supernatants) were mixed with embryo culture media at an appropriate concentration. For inhibitor experiments, negative controls contained the medium used to dispense Gabexate mesylate.

[3] = biological target: T1, ISP1-ISP2 enzyme complex; test: Substrate affinity (Km) of synthetic chromogenic substrates for ISP enzyme complex; type: biochemical; conditions: Km = [S] at 1/2 Vmax
Description: To determine the substrate specificity of the ISP complex and to classify it into a subclass of the S1 family of serine proteinases, enzyme assays were carried out using different p-nitroanilide linked peptide (1–3 mer) substrates. These included chymotrypsin-like (Tyr/Phe at cleavage (P1) site), trypsin-like (Arg/Lys at P1 position), elastase-like (Ala at P1 position), and subtilisin-like (Leu at P1 position) substrates. In order to compare affinity of specific substrates and derive Michaelis Menton constant (Km) values, the kinetic curves were plotted (substrate conc. [S] vs. rate of reaction [v]).
as §1

[4] = test system: hatched blastocysts; test: In vitro embryo outgrowth onto extracellular matrix; type: cell-based; conditions: for Embryo death: 48 hrs
Source text: Implantation was simulated in vitro by growth of the hatched blastocysts in culture plates coated with the extracellular matrix derived from mouse embryonic fibroblasts, which can be invaded by outgrowing embryos (Fig. 6C and 6D). The effect of Gabexate on blastocyst outgrowth is also incremental with increasing concentration of Gabexate (Fig. 7B). […] A similar result was not observed for individual or combined mAbs, possibly owing to the abundance of ISP enzyme that occurs within the uterine fluid.
as §2

[5] = test system: hatched blastocysts; test: as above; type: cell-based
[6] = test system: embryo implantation; test: Effect on pregnancy after injection into the uterine lumen; type: in vivo, CD1 mice; conditions: for # pregnant / # embryos: 10 ul of 10 mM per uterine horn at 2.5 dpc, examined at 7.5 dpc; for Rate (%) of pregnancy: rate of pregnancy in Controls assumed as 100%
Description: CD1 mice were obtained at the age of 6–8 weeks from Charles River Canada (St. Constant, Quebec) and maintained in a standard laboratory animal facility with controlled temperature (20°C), humidity and light cycle (lights on between 0700 and 1900 hr). The maintenance and treatment of animals was in full compliance with the Standard laboratory animal care protocols approved by the University of Calgary Animal Care Committee. To obtain natural pregnancies, female mice were paired with adult males and checked daily for the presence of vaginal copulatory plugs, as an indication of mating. The day of plug detection is designated as day 0.5 post coetum. For collection of uteri and embryos, pregnant dams were sacrificed on a specific day by cervical dislocation.
Uterine horns were exposed surgically whereupon inhibitor or anti-ISP antibodies were injected into the uterine lumen using the minimum possible volume (10 μl fluid was injected per horn). Since Gabexate was dissolved in normal saline, the control mice were injected with normal saline solution.

[7] = 4 mM BAPNA substrate, 25 mM Tris.Cl pH 8.0, room temperature, read-out: IC50%
[8] = Expt 04, 0.1 mM, 6 embryos/drop, control 6
[9] = Expt 04, 0.25 mM, 6 embryos/drop, control 6
[10] = Expt 06, 0.01 mM, 5 embryos/drop, control 4
[11] = Expt 06, 0.05 mM, 5 embryos/drop, control 4
[12] = Expt 06, 0.1 mM, 5 embryos/drop, control 4
[13] = Expt 07, 0.1 mM, 5 embryos/drop, control 6 of 6
[14] = Expt 07, 0.5 mM, 6 embryos/drop, control 6

N=C(N)c1ccc(CS(=O)(=O)F)cc1 [APMSF, 4-(Amidino-Phenyl)-Methane-Sulfonyl Fluoride]
IC50 [1, 7]: 19500 µM | Ki ([1]; BAPNA substrate): 5310 µM | Influence on ISP activity [1]: inhibitory influence

N=C(N)c1ccc2[nH]c(Cc3nc4cc(C(=N)N)ccc4[nH]3)nc2c1 [BABIM, Bis (5-amidino-2-benzimadozolyl) methane]
IC50 [1, 7]: 750 µM | Affinity for ISP enzyme [1]: relatively high affinity | Ki ([1]; BAPNA substrate): 204 µM | Influence on ISP activity [1]: inhibitory influence | Embryos hatched after 24 hrs. [2, 8]: 5 | Embryos hatched after 48 hrs. [2, 8]: 6 | Embryos hatched after 24 hrs. [2, 9]: 1 | Embryos hatched after 48 hrs. [2, 9]: 1 | Embryo death ([2]; Expt 04, 0.5 mM, 6 embryos/drop, 24 hrs): all died | Embryos hatched after 24 hrs. ([2]; Expt 04, 0.5 mM, 6 embryos/drop, control 6): 0

CC(C)[C@H](NC(=O)[C@H](Cc1ccccc1)NC(=O)c1ccccc1)C(=O)N[C@@H](CCCN=C(N)N)C(=O)Nc1ccc([N+](=O)[O-])cc1 [BPVANA, N-Benzoyl-Phe-Val-Arg-pNA] (Bz-Phe-Val-Arg-pNA)
Km [3]: 60 µM

N=C(N)c1ccccc1 [Benzamidine hydrochloride]
Ki ([1]; BAPNA substrate): 44300 µM | Influence on ISP activity [1]: inhibitory influence | Embryo death ([2]; Expt 01, 50 mM, 12 embryos/drop, 24 hrs): all died | Embryos hatched after 24 hrs. ([2]; Expt 01, 50 mM, 12 embryos/drop, control 9): 0 | Embryo death ([2]; Expt 02, 20 mM, 10 embryos/drop, 24 hrs): all died | Embryos hatched after 24 hrs. ([2]; Expt 02, 20 mM, 10 embryos/drop, control 5): 0 | Embryos hatched after 24 hrs. ([2]; Expt 03, 0.5 mM, 11 embryos/drop, control 5): 3 | Embryos hatched after 48 hrs. ([2]; Expt 03, 0.5 mM, 11 embryos/drop, control 10): 4 | Embryos hatched after 24 hrs. ([2]; Expt 03, 1 mM, 11 embryos/drop, control 5): 4 | Embryos hatched after 48 hrs. ([2]; Expt 03, 1 mM, 11 embryos/drop, control 10): 7 | Embryos hatched after 24 hrs. ([2]; Expt 03, 4 mM, 11 embryos/drop, control 5): 2 | Embryos hatched after 48 hrs. ([2]; Expt 03, 4 mM, 11 embryos/drop, control 10): 2 | Embryo death ([4]; Experiment 01, 50 mM, 12 hatched embryos): all died | Embryos outgrown after 48 hrs. ([4]; Experiment 01, 50 mM, 12 hatched embryos, control 9): 0 | Embryo death ([4]; Experiment 02, 4 mM, 10 hatched embryos): all died | Embryos outgrown after 48 hrs. ([4]; Experiment 02, 4 mM, 10 hatched embryos, control 10): 0

CCOC(=O)c1ccc(OC(=O)CCCCCNC(=N)N)cc1 [Gabexate mesylate]
Embryos outgrown after 72 hrs. ([5]; Experiment 03, 0.1 mM, 8 hatched embryos, control 7): 4 | Embryos outgrown after 72 hrs. ([5]; Experiment 03, 0.5 mM, 8 hatched embryos, control 7): 2 | Embryos outgrown after 72 hrs. ([5]; Experiment 04, 0.1 mM, 11 hatched embryos, control 9): 6 | Embryos outgrown after 72 hrs. ([5]; Experiment 04, 0.5 mM, 11 hatched embryos, control 9): 2 | IC50 [1, 7]: 1800 µM | Affinity for ISP enzyme [1]: relatively high affinity | Ki ([1]; BAPNA substrate): 490 µM | Influence on ISP activity [1]: inhibitory influence | Embryo death ([2]; CD1, mouse, 24 h, 0.1 mM): all died | Embryo death ([2]; CD1, mouse, 24 h, 0.5 mM): all died | Embryo death ([2]; CD1, mouse, 24 h, 2 mM): all died | Embryos hatched after 24 hrs. ([2]; Expt 05, 0.1 mM, 6 embryos/drop, control 6): 0 | Embryos hatched after 24 hrs. ([2]; Expt 05, 0.5 mM, 6 embryos/drop, control 6): 0 | Embryos hatched after 24 hrs. ([2]; Expt 05, 2.0 mM, 6 embryos/drop, control 6): 0 | Embryos hatched after 24 hrs. [2, 10]: 4 | Embryos hatched after 48 hrs. [2, 10]: 4 | Embryos hatched after 24 hrs. [2, 11]: 4 | Embryos hatched after 48 hrs. [2, 11]: 4 | Embryos hatched after 24 hrs. [2, 12]: 0 | Embryos hatched after 48 hrs. [2, 12]: 2 | Embryos hatched after 24 hrs. [2, 13]: 0 | Embryos hatched after 48 hrs. [2, 13]: 2 | Embryos hatched after 24 hrs. [2, 14]: 0 | Embryos hatched after 48 hrs. [2, 14]: 0 | Embryos hatched after 24 hrs. ([2]; Expt 08, 0.1 mM, 16 embryos/drop, control 4 of 17): 3 | Embryos hatched after 48 hrs. ([2]; Expt 08, 0.1 mM, 16 embryos/drop, control 12 of 17): 3 | Embryos hatched after 24 hrs. ([2]; Expt 08, 0.5 mM, 17 embryos/drop, control 4): 1 | Embryos hatched after 48 hrs. ([2]; Expt 08, 0.5 mM, 17 embryos/drop, control 12): 3 | Effect on in vitro embryo hatching ([2]; compared to controls): almost completely inhibited | # pregnant ([6]; group 1, 11 mice, Control 1: 6 of 6): 1 | # embryos ([6]; group 1, 11 mice, Control 1: 72): 2 | Rate (%) of pregnancy ([6]; group 1): 2.8% | # pregnant ([6]; group 2, 6 mice, Control 2: 4 of 4): 1 | # embryos ([6]; group 2, 6 mice, Control 2: 22): 3 | Rate (%) of pregnancy ([6]; group 2): 13.6% | Effect on embryo implantation in vivo ([6]; injected into the uterine lumen at 2.5 dpc, compared with controls): rate of pregnancy drops to very low | Embryos outgrown after 48 hrs. ([4]; Experiment 03, 0.1 mM, 8 hatched embryos, control 5): 0 | Embryos outgrown after 48 hrs. ([4]; Experiment 03, 0.5 mM, 8 hatched embryos, control 5): 1 | Embryos outgrown after 48 hrs. ([4]; Experiment 04, 0.1 mM, 11 hatched embryos, control 6): 5 | Embryos outgrown after 48 hrs. ([4]; Experiment 04, 0.5 mM, 11 hatched embryos, control 6): 1 | Effect on in vitro embryo outgrowth ([4]; compared to controls): almost completely inhibited

Cc1ccc(S(=O)(=O)N[C@@H](CCCCN)C(=O)CCl)cc1.Cl [TLCK, L-1-chloro-3[4-tosyl-amido]-7-amino-2-heptanone-HCl]
IC50 [1, 7]: 8000 µM | Ki ([1]; BAPNA substrate): 2180 µM | Influence on ISP activity [1]: inhibitory influence

UPTI: rPorcine Uterine Plasmin Trypsin Inhibitor
IC50 ([1]; BAPNA substrate, no effect up to stated concentration, read-out: IC50% (No effect up to)): > 500000 µM
